Test results reported in ChEMBL document CHEMBL3734667 (Bioorg Med Chem, 2015).
pEC50, pIC50: −log10 of the molar value. Calls of active or inactive are those of the source. The calls are words filed in the database; no cut-off is given here.

How the values were obtained:
[1] = test system: Bovine viral diarrhea virus 1; assay: Antiviral activity against BVDV infected in MDBK cells assessed as inhibition of virus-induced cytopathogenicity after 3 to 4 days by MTT assay; format: functional, organism-based; conditions: Bovine viral diarrhea virus isolates and strains
[2] = Cytotoxicity against human MT4 cells assessed as cell viability after 96 hrs by MTT assay; format: cell-based
[3] = Selectivity index, ratio of CC50 for african green monkey Vero76 cells to EC50 for human RSV; design: species or system human respiratory syncytial virus, Vero 76
[4] = Cytotoxicity against african green monkey Vero 76 cells assessed as cell viability after 48 to 96 hrs by crystal violet staining method; format: cell-based; conditions: chlorocebus sabaeus
[5] = molecular target: T1, Peroxisome proliferator-activated receptor alpha (Homo sapiens) (UniProt Q07869); assay: Agonist activity at human PPAR alpha in human HepG2 cells after 20 hrs by luciferase reporter assay; format: cell-based
T1 sequence (whole entry): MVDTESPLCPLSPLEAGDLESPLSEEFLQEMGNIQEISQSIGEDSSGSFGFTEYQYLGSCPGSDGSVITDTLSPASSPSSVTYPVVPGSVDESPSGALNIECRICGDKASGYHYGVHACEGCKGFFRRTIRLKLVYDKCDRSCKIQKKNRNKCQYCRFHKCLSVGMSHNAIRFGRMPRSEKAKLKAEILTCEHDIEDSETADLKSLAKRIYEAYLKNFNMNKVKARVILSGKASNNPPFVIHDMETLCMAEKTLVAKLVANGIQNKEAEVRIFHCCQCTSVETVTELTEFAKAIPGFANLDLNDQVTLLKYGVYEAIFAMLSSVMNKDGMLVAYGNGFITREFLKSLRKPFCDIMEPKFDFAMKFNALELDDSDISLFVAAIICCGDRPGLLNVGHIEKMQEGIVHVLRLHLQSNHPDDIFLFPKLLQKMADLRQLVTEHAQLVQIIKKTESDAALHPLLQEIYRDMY

Poliovirus 1 [6] = assay: Antiviral activity against Human poliovirus 1 Sabin infected in african green monkey Vero76 cells assessed as inhibition of virus-induced cytopathogenicity by plaque reduction assay; format: functional, organism-based; conditions: Enterovirus C, Vero 76
[7] = molecular target: T2, Peroxisome proliferator-activated receptor gamma (Homo sapiens) (UniProt P37231); assay: Agonist activity at human PPAR gamma in human HepG2 cells after 20 hrs by luciferase reporter assay; format: cell-based
T2 sequence (whole entry): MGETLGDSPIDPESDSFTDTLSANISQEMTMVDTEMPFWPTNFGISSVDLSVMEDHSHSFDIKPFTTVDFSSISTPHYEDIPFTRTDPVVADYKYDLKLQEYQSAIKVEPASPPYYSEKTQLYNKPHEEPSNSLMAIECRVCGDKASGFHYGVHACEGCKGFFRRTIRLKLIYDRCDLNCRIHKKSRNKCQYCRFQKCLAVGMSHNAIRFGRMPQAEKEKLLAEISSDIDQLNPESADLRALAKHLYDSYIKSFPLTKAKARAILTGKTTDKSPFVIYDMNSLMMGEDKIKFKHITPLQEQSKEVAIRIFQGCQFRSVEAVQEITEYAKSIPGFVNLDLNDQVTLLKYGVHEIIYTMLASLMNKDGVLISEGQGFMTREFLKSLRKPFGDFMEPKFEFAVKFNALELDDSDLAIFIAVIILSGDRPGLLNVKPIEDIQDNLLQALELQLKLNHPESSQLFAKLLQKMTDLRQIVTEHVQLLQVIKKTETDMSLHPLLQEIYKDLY

[8] = test system: Vesicular stomatitis virus; assay: Antiviral activity against VSV; format: functional, organism-based
Vaccinia virus = assay: Antiviral activity against Vaccinia virus; format: functional, organism-based; conditions: Orthopoxvirus vaccinia
Coxsackievirus B5 = assay: Antiviral activity against human CVB5 infected in african green monkey Vero76 cells assessed as inhibition of virus-induced cytopathogenicity after 3 days by plaque reduction assay; format: functional, organism-based; conditions: Enterovirus B, Vero 76, 72 h
Yellow fever virus = assay: Antiviral activity against YFV infected in BHK-21 cells assessed as inhibition of virus-induced cytopathogenicity after 3 to 4 days by MTT assay; format: functional, organism-based
[9] = Cytotoxicity against MDBK cells assessed as cell viability after 48 to 96 hrs by MTT assay; format: cell-based, Bos taurus; conditions: cattle
[10] = test system: Human immunodeficiency virus 1; assay: Antiviral activity against HIV-1 infected in MT4 cells assessed as inhibition of virus-induced cytopathogenicity after 4 days by MTT assay; format: functional, organism-based; conditions: Human immunodeficiency virus 1, MT4, 96 h
[11] = Selectivity index, ratio of CC50 for MDBK cells to EC50 for BVDV; design: species or system Bovine viral diarrhea virus 1
[12] = Cytotoxicity against BHK cells assessed as cell viability after 48 to 96 hrs by MTT assay; format: cell-based, Mesocricetus auratus; conditions: hamster
Human orthopneumovirus = assay: Antiviral activity against human RSV infected in african green monkey Vero76 cells assessed as inhibition of virus-induced cytopathogenicity after 5 days by plaque reduction assay; format: functional, organism-based; conditions: human respiratory syncytial virus, Vero 76, 120 h
West Nile virus = assay: Antiviral activity against WNV infected in BHK-21 cells assessed as inhibition of virus-induced cytopathogenicity after 3 to 4 days by MTT assay; format: functional, organism-based
Human alphaherpesvirus 1 = assay: Antiviral activity against HSV1; format: functional, organism-based
dengue virus type 2 = assay: Antiviral activity against DENV-2 infected in BHK-21 cells assessed as inhibition of virus-induced cytopathogenicity after 3 to 4 days by MTT assay; format: functional, organism-based
[13] = Selectivity index, ratio of CC50 for african green monkey Vero76 cells to EC50 for human CVB5; design: species or system Coxsackievirus B5, Vero 76
[14] = Selectivity index, ratio of CC50 for BHK-21 cells to EC50 for YFV; design: species or system Yellow fever virus
[15] = Inhibition of HCV helicase; design: species or system Hepacivirus hominis
Influenza B virus = assay: Antiviral activity against Influenza B virus; format: functional
Poliovirus 2 = assay: Antiviral activity against Human poliovirus 2; format: functional; conditions: Enterovirus C
[16] = test system: Mammalian orthoreovirus 1; assay: Antiviral activity against Reo-1 virus infected in BHK-21 cells assessed as inhibition of virus-induced cytopathogenicity after 3 to 4 days by MTT assay; format: functional, cell-based; conditions: Mammalian orthoreovirus 1, BHK-21
[17] = Selectivity index, ratio of CC50 for BHK-21 cells to EC50 for WNV; design: species or system West Nile virus
[18] = Selectivity index, ratio of CC50 for BHK-21 cells to EC50 for DENV-2
Poliovirus 1 [19] = assay: Antiviral activity against Human poliovirus 1 Sabin; format: functional, organism-based; conditions: Enterovirus C
[20] = Selectivity index, ratio of CC50 for human MT4 cells to EC50 for HIV-1; format: toxicity, cell-based; conditions: human immunodeficiency virus 1, MT4 cells; read-out: Ratio CC50/EC50

CC(C)(COc1ccc(-n2nc3ccccc3n2)cc1)C(=O)O
pEC50 [1]: 4.36 | CC50 at 96 h [2]: > 100 µM | Ratio CC50/EC50 [3]: 2.8 | CC50 [4]: 70 µM | Activity [5]: inactive | pEC50 (Poliovirus 1 [6]): < 4.00 | Activity [7]: inactive | pEC50 [8]: < 4.00 | pEC50 (Vaccinia virus): < 4.00 | pEC50 (Coxsackievirus B5): < 4.00 | pEC50 (Yellow fever virus): < 4.00 | CC50 [9]: > 100 µM | pEC50 [10]: < 4.00 | Ratio CC50/EC50 [11]: >2.27 | CC50 [12]: > 100 µM | pEC50 (Human orthopneumovirus): 4.60

C[C@@]1(O)[C@H](O)[C@@H](CO)O[C@H]1n1cnc2c(=O)[nH]c(N)nc21 [2'-B-METHYL-GUANOSINE]
CC50 at 96 h [2]: > 100 µM | pEC50 (West Nile virus): 6.15 | CC50 [4]: > 100 µM | pEC50 (Human alphaherpesvirus 1): < 4.00 | pEC50 (dengue virus type 2): 5.92 | pEC50 (Poliovirus 1 [6]): < 4.00 | pEC50 [8]: < 4.00 | pEC50 (Vaccinia virus): < 4.00 | Ratio CC50/EC50 [13]: >5 | pEC50 (Coxsackievirus B5): 4.70 | pEC50 (Yellow fever virus): 5.82 | Ratio CC50/EC50 [14]: >66.7 | CC50 [9]: > 100 µM | Ratio CC50/EC50 [11]: >58.8 | CC50 [12]: > 60 µM | pEC50 (Human orthopneumovirus): < 4.00

OCC1OC(n2nnc3cc(Cl)c(Cl)cc32)C(O)C1O (stereo not given)
pIC50 [15]: 5.82 | EC75 (Influenza B virus): 750 µM

Clc1c(Cl)c(Cl)c2[nH]nnc2c1Cl
EC75 (Influenza B virus): 3 µM | EC75 (Poliovirus 2): 8.1 µM

Oc1ccc(-n2nc3cc(Cl)c(Cl)cc3n2)cc1
pEC50 [1]: 4.85 | pEC50 [16]: < 4.00 | CC50 at 96 h [2]: 47 µM | pEC50 (West Nile virus): 4.89 | Ratio CC50/EC50 [3]: 6.25 | CC50 [4]: 50 µM | pEC50 (Human alphaherpesvirus 1): < 4.00 | pEC50 (dengue virus type 2): 5.10 | pEC50 (Poliovirus 1 [6]): < 4.00 | pEC50 [8]: < 4.00 | pEC50 (Vaccinia virus): < 4.00 | Ratio CC50/EC50 [13]: 2 | pEC50 (Coxsackievirus B5): 4.60 | pEC50 (Yellow fever virus): 5.22 | Ratio CC50/EC50 [17]: 2.15 | Ratio CC50/EC50 [18]: 3.5 | Ratio CC50/EC50 [14]: 4.67 | CC50 [9]: 37 µM | pEC50 [10]: < 4.00 | Ratio CC50/EC50 [11]: 2.64 | CC50 [12]: 28 µM | pEC50 (Human orthopneumovirus): 5.10

CC(C)(CCCOc1ccc(-n2nc3ccccc3n2)cc1)C(=O)O
pEC50 [1]: 4.57 | CC50 at 96 h [2]: 47 µM | Ratio CC50/EC50 [3]: 5 | CC50 [4]: 25 µM | Activity [5]: inactive | pEC50 (Poliovirus 1 [6]): < 4.00 | Activity [7]: inactive | pEC50 [8]: < 4.00 | pEC50 (Vaccinia virus): < 4.00 | Ratio CC50/EC50 [13]: 6.25 | pEC50 (Coxsackievirus B5): 5.40 | pEC50 (Yellow fever virus): < 4.00 | CC50 [9]: 61 µM | pEC50 [10]: < 4.00 | Ratio CC50/EC50 [11]: 2.26 | CC50 [12]: 31 µM | pEC50 (Human orthopneumovirus): 5.30

COc1ccc2nn(-c3ccc(OCC(C)(C)C(=O)O)cc3)nc2c1
pEC50 [1]: 4.18 | CC50 at 96 h [2]: ≥ 100 µM | Ratio CC50/EC50 [3]: 5.91 | CC50 [4]: 65 µM | Activity [5]: inactive | pEC50 (Poliovirus 1 [6]): < 4.00 | Activity [7]: inactive | pEC50 [8]: < 4.00 | pEC50 (Vaccinia virus): < 4.00 | Ratio CC50/EC50 [13]: 2.71 | pEC50 (Coxsackievirus B5): 4.62 | pEC50 (Yellow fever virus): < 4.00 | CC50 [9]: > 100 µM | pEC50 [10]: < 4.00 | Ratio CC50/EC50 [11]: >1.51 | CC50 [12]: 100 µM | pEC50 (Human orthopneumovirus): 4.96

CC(=O)Nc1ccc(-n2nnc3ccc(C(F)(F)F)cc32)cc1
pEC50 (Poliovirus 1 [19]): 4.52

CN(C)c1cccc(C(=O)OCCn2nc3ccccc3n2)c1
pEC50 [1]: < 4.00 | CC50 at 96 h [2]: > 100 µM | CC50 [4]: > 100 µM | pEC50 [8]: < 4.00 | pEC50 (Vaccinia virus): < 4.00 | pEC50 (Coxsackievirus B5): < 4.00 | pEC50 (Yellow fever virus): < 4.00 | CC50 [9]: > 100 µM | pEC50 [10]: 4.25 | selectivity ratio [20]: 1.78 | CC50 [12]: > 100 µM | pEC50 (Human orthopneumovirus): < 4.00
